From publication PMC4826333 (Journal of medicinal chemistry, 2015) come the findings set out here.

Data set [1] relates to PC-3, DU-145, LNCaP, and HeLa. Description: Trypan blue cytotoxicity, panel of cancer cell lines. The note with it: four cancer cell lines; for cytotoxicity as compared with curcumin: 1 and 10 μM.
In the next data set the test system is PC-3, DU145, LNCaP, HeLa. The experiment in a line: Relative potency versus curcumin over the cancer cell lines, WST-1 and TB. Format: cell-based, human. The note with it: in the tested cancer cell lines. For orientation: Formazan colour is commonly taken as a measure of viable cells.

Turning to `Cn1cncc1/C=C/C(=O)/C=C/c1cncn1C` [Compound 16, (1E,4E)-1,5-Bis(1-methyl-1H-imidazol-5-yl)penta-1,4-dien-3-one], in data set [1], the “cytotoxicity as compared with curcumin” value is on record as “as effective (or slightly more effective) as curcumin”.
Consider `Cn1cc(/C=C/C(=O)/C=C/c2cnn(C)c2)cn1` [Compound 17, (1E,4E)-1,5-Bis(1-methyl-1H-pyrazol-4-yl)penta-1,4-dien-3-one], for which, in data set [1], the “activity at 10 μM concentration” value was “almost inactive” and the “cytotoxicity as compared with curcumin” value was “did not show increased or similar cytotoxicity”.
For the compound `Cn1nc(C(F)(F)F)c(/C=C/C(=O)/C=C/c2c(C(F)(F)F)nn(C)c2Cl)c1Cl` [Compound 18, (1E,4E)-1,5-Bis(5-chloro-1-methyl-3-(trifluoromethyl)-1H-pyrazol-4-yl)penta-1,4-dien-3-one], the “cytotoxicity as compared with curcumin” value in data set [1] is “as effective (or slightly more effective) as curcumin”.
On to `O=C(/C=C/c1cocn1)/C=C/c1cocn1` [Compound 20, (1E,4E)-1,5-Bis(oxazol-4-yl)penta-1,4-dien-3-one], for which the “cytotoxicity as compared with curcumin” value in data set [1] is “as effective (or slightly more effective) as curcumin”.
Consider `Cc1nc(C(F)(F)F)c(/C=C/C(=O)/C=C/c2sc(C)nc2C(F)(F)F)s1` [Compound 24, (1E,4E)-1,5-Bis(2-methyl-4-(trifluoromethyl)thiazol-5-yl)-penta-1,4-dien-3-one], for which, in the data set on PC-3, DU145, LNCaP, HeLa, the “times more potent than curcumin” value is recorded as 11–36 times.
Take `O=C(/C=C/c1cccnc1)/C=C/c1cccnc1` [Compound 27, (1E,4E)-1,5-Di(pyridin-3-yl)penta-1,4-dien-3-one]: in data set [1], the “cytotoxicity as compared with curcumin” value is reported as “as effective (or slightly more effective) as curcumin”.
The same measure, in the same setting: in the case of `O=C(/C=C/c1ccc2ccccc2n1)/C=C/c1ccc2ccccc2n1` [Compound 31, (1E,4E)-1,5-Di(quinolin-2-yl)penta-1,4-dien-3-one] it was “as effective (or slightly more effective) as curcumin”; in that of `O=C(/C=C/c1ccnc2ccccc12)/C=C/c1ccnc2ccccc12` [Compound 32, (1E,4E)-1,5-Di(quinolin-4-yl)penta-1,4-dien-3-one], “as effective (or slightly more effective) as curcumin”.
Consider `O=C(/C=C/c1cc2ccccc2nc1Cl)/C=C/c1cc2ccccc2nc1Cl` [Compound 33, (1E,4E)-1,5-Bis(2-chloroquinolin-3-yl)penta-1,4-dien-3-one], for which, in data set [1], the “activity at 10 μM concentration” value is “almost inactive” and the “cytotoxicity as compared with curcumin” value was “did not show increased or similar cytotoxicity”.
The matching figures for `Cc1nc(/C=C/C(=O)/C=C/c2nc(C)c(-c3ccncc3)s2)sc1-c1ccncc1` [Compound 34, (1E,4E)-1,5-Bis(4-methyl-5-(pyridin-4-yl)thiazol-2-yl)penta-1,4-dien-3-one]: “almost inactive” and “did not show increased or similar cytotoxicity”.
As for `O=C(/C=C/c1nc2ccccc2s1)/C=C/c1nc2ccccc2s1` [Compound 35, (1E,4E)-1,5-Bis(benzo[d]thiazol-2-yl)penta-1,4-dien-3-one], the “cytotoxicity as compared with curcumin” value in data set [1] is listed as “as effective (or slightly more effective) as curcumin”.
